Data set [1] in a line: Therapeutic index (NOAEL/NOEL): paleness, lethargy, ataxia observation in Sprague-Dawley rats (Example 7). It counts as in vivo. The settings on record: for Highest dose with no-observed effect level or paleness (NOEL) / Marked adverse effect (Lowest dose first showed Ataxia) / Mild adverse effect (Lowest dose first showed Lethargy) / NOAEL/NOEL (therapeutic index) / NOAEL / Ataxia (duration, hrs; SD) / Lethargy (duration, hrs; SD) / NOAEL at 24 h: rat; for NOAEL / NOAEL at 24 h: read-out: Highest dose with no-observed adverse effect level without lethargy (NOAEL); for NOAEL at 24 h: male, Sprague-Dawley. From the text:
As used herein, the term “therapeutic index” (TI; also referred to as therapeutic ratio) is a quantitative measure of the relative safety of a drug. […] For the purpose of the present application, lethargy is a lack of energy and/or sleepiness which is visually observed in rats as a lack of mobility, such as a lack of mobility even in the presence of human activity. For the purpose of present specification, peripheral vasoconstriction is visually observed by a paleness of the extremities (e.g., skin of hands, feet, ears, and lips). In rats, peripheral vasoconstriction is determined by a side-by-side comparison of ear paleness in treated subjects (e.g., Sprague Dawley rats, a white rat with easily visualizable changes in redness/paleness) vs. untreated control subjects. The V1a agonist (or partial agonist) with a high therapeutic index will have a better safety profile than that with a low therapeutic index by providing a wider margin of safety for dosing during the treatment of the disease. This NOAEL/NOEL ratio, being a quantitative measure of the relative safety, is a comparison of the amount of a therapeutic agent that causes the therapeutic effect (useful effect, vasoconstriction for the purpose of the present specification) to the amount that causes toxicity. A V1a agonist that causes severe vasoconstriction will affect not only the peripheral vessels, with several layer of smooth muscles, but also other vessels present in other organs (e.g., heart, lungs, kidney, brain) and this will result in observed lethargy and eventually ataxia. A partial agonist is less likely to reach such an extreme level of vasoconstriction and is believed to have a higher therapeutic index.
In this study, 8 to 10 weeks male Sprague-Dawley rats (Charles River; Wilmington, MA) under isoflurane anesthesia (n=3 or 6) were intravenously (IV) or subcutaneously (SC) injected or administered with various test articles. Prior to administration of test articles, the injection area was clipped free of fur, to allow for clear visualization of the dose site, and animal weight was measured and recorded. Animals were housed two per cage. […] Lethargy is when the animal eyes cannot fully open and is associated deep breathing and limited of movement even in the presence of human.

In a further data set the target is T1, V1a receptor (Homo sapiens, UniProt P37288).
T1 construct: host or cells: CHO cells
T1 sequence (P37288 whole entry): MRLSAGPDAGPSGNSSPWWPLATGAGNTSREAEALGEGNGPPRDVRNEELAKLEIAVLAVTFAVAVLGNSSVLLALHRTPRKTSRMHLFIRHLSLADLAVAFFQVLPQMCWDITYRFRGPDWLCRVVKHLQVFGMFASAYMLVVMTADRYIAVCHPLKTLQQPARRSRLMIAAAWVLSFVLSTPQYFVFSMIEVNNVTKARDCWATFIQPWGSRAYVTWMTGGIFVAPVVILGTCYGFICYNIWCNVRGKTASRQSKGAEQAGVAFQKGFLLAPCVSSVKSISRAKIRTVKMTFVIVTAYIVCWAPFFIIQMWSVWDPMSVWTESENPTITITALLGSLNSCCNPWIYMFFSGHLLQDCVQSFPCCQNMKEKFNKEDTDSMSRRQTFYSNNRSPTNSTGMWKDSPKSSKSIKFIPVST
Put plainly: V1a Human Vasopressin GPCR Cell Based Agonist Calcium Flux Assay. The settings on record: for Emax: read-out: V1a Highest agonist effect (% of AVP). The protocol:
Peptides of Formula (I) include Mpa-Tyr-Phe-Hgn-Asn-Cys-Pro-Lys(X)a-Gly-NH2 [SEQ ID NO. 24]; where (X)a is a peptide with “a” residues and each residue X is independently selected from Gly, and a D- or L-amino acid version of Ala, Lys, Orn, Glu, and Asp, where “a” is 0-10. V1a Human Vasopressin GPCR Cell Based Agonist Calcium Flux Assay were conducted at Eurofins Cerep SA (France) on a fee for service basis. Human recombinant CHO cells expressing human V1 receptors were distributed in microplates. Intracellular calcium signal was detected by fluorimetry, and the signal was acquired before and after addition of a known agonist concentration. The following agonist concentrations were tested (nM); 0.0128, 0.064, 0.32, 1.6, 8, 40, 200, and 1,000. […] All assays were performed in duplicate. Changes in fluorescence intensity reflected changes in the concentration of free cytosolic calcium. […] The half-maximal effective concentration (EC50) was determined by a non-linear regression analysis of the concentration-response curves generated with mean replicate values using Hill equation curve fitting (Cerep, I'Evescault, France).
V1a Human Vasopressin GPCR Cell Based Agonist Calcium Flux Assay were conducted using human recombinant CHO cells expressing human V1 receptor. Briefly, human recombinant CHO cells expressing human V1 receptor were distributed in microplates at 4.5×10^4 cells/well. The fluorescent probe (Fluo4 Direct, Invitrogen) mixed with probenicid in HBSS buffer (Invitrogen) complemented with 20 mM HEPES (Invitrogen) (pH 7.4) is then added into each well and equilibrated with the cells for 60 min at 37° C. then 15 min at 22° C. Thereafter, the assay plates are positioned in a microplate reader (CellLux, PerkinElmer) which is used for the addition of the test compound, reference agonist or HBSS buffer (basal control), and the measurements of changes in fluorescence intensity which varies proportionally to the free cytosolic Ca^2+ ion concentration. The following agonist concentrations were tested (nM), 0.0128, 0.064, 0.32, 1.6, 8, 40, 200, and 1,000. […] All assays were performed in duplicate. Changes in fluorescence intensity reflected changes in the concentration of free cytosolic calcium. […] Referring to FIG. 3 and Table 4, the half-maximal effective concentration (EC50) was determined by non-linear regression analysis of the concentration-response curves generated with mean replicate values using Hill equation curve fitting (Cerep, I'Evescault, France).
(A change in cytosolic calcium serves as a functional read-out for many receptors and channels.)

[2] abbreviates: Table 3, cells printed in μM, read-out: Estimated V1a EC50, n = 2.
Setting [3] is: S.C., at the Marked adverse effect dose.
The mark [4] stands for this setting: S.C., at the Mild adverse effect dose.
[5] abbreviates: FIG. 2 / FIG. 3 legend, n=2, read-out: EC50 for V1a receptor.

Read-outs that look alike come from different tables or passages of the source. Marks after values point to notes of the source that are not given here.

`NCCCCCCCCCCCC(=O)NCCCC[C@H](NC(=O)[C@@H]1CCCN1C(=O)[C@@H]1CSSCCC(=O)N[C@@H](Cc2ccc(O)cc2)C(=O)N[C@@H](Cc2ccccc2)C(=O)N[C@@H](CCCC(N)=O)C(=O)N[C@@H](CC(N)=O)C(=O)N1)C(=O)NCC(N)=O` [SEQ ID NO. 19, Mpa-Tyr-Phe-Hgn-Asn-Cys-Pro-Lys(12-aminododecanoic acid)-Gly-NH2]: in data set [1] (S.C.), the “Highest dose with no-observed effect level or paleness (NOEL)” value came to 0.014 mg/kg, the “Marked adverse effect (Lowest dose first showed Ataxia)” value (“Marked adverse effect” for short) was above 9.08 mg/kg, the “Mild adverse effect (Lowest dose first showed Lethargy)” value (“Mild adverse effect” for short) is above 9.08 mg/kg and the “NOAEL/NOEL (therapeutic index)” value is reported as 649 (Dose too. The NOAEL in data set [1] (in vivo, sc, S.C.) was 9.08 mg/kg. In data set [1] (in vivo, sc), the “Ataxia (duration, hrs; SD)” value is “None Observed” and the “Lethargy (duration, hrs; SD)” value is recorded as “None Observed”. Also, the EC50 at V1a receptor (setting [2]) is above 10 µM. In addition, the Emax on V1a receptor (Table 3, n = 2) turned out to be 2.5%.
As to `NCC(=O)NCC(=O)NCC(=O)NCC(=O)NCC(=O)NCC(=O)NCCCC[C@H](NC(=O)[C@@H]1CCCN1C(=O)[C@@H]1CSSCCC(=O)N[C@@H](Cc2ccc(O)cc2)C(=O)N[C@@H](Cc2ccccc2)C(=O)N[C@@H](CCC(N)=O)C(=O)N[C@@H](CC(N)=O)C(=O)N1)C(=O)NCC(N)=O` [SEQ ID NO. 20, Mpa-Tyr-Phe-Gln-Asn-Cys-Pro-Lys(X)a-Gly-NH2; (X)a = (Gly)6], the “Paleness (Duration, hrs; SD)” value in data set [1] (setting [3]) is “(>6.76)* hrs”; in data set [1] (setting [4]), “(>5.46)* hrs”; in data set [1] (S.C., at the NOAEL dose), “(6.11 ± 0.09) hrs”; in data set [1] (S.C., at the NOEL dose), “None observed”. Moreover, in data set [1] (S.C.), the “Highest dose with no-observed effect level or paleness (NOEL)” value came out at 0.0015 mg/kg. For the same compound, the “NOAEL/NOEL (therapeutic index)” value in data set [1] (S.C.) is recorded as 100. The no observed adverse effect level (NOAEL) at 24 h in data set [1] (in vivo, sc, S.C.) is 0.15 mg/kg. The “Marked adverse effect” value in data set [1] (in vivo, sc) turned out to be 5.0 mg/kg. The “Mild adverse effect” value in data set [1] (in vivo, sc) is 0.5 mg/kg. The EC50 at V1a receptor (setting [5]) amounted to 0.0273 µM. The Emax at V1a receptor (Table 4, n = 2) came to 60.9%.
In the case of `NCC(=O)NCC(=O)NCC(=O)NCC(=O)NCC(=O)NCC(=O)NCC(=O)NCC(=O)NCC(=O)NCCCC[C@H](NC(=O)[C@@H]1CCCN1C(=O)[C@@H]1CSSCCC(=O)N[C@@H](Cc2ccc(O)cc2)C(=O)N[C@@H](Cc2ccccc2)C(=O)N[C@@H](CCC(N)=O)C(=O)N[C@@H](CC(N)=O)C(=O)N1)C(=O)NCC(N)=O` [SEQ ID NO. 23, Mpa-Tyr-Phe-Gln-Asn-Cys-Pro-Lys(X)a-Gly-NH2; (X)a = (Gly)9], the “Paleness (Duration, hrs; SD)” value in data set [1] (setting [3]) is “(>6.46)* hrs”; in data set [1] (setting [4]) it was “(6.23 ± 0.05) hrs”; in data set [1] (S.C., at the NOAEL dose), “(>5.09)* hrs”; in data set [1] (S.C., at the NOEL dose), “None observed”. Also, the “Highest dose with no-observed effect level or paleness (NOEL)” value in data set [1] (S.C.) is 0.0015 mg/kg. In addition, in data set [1] (S.C.), the “NOAEL/NOEL (therapeutic index)” value is 333. Besides, in data set [1] (in vivo, sc, S.C.), the no-observed-adverse-effect level (NOAEL) at 24 h turned out to be 0.5 mg/kg. Also, the “Marked adverse effect” value in data set [1] (in vivo, sc) stood at 5.0 mg/kg. Further, the “Mild adverse effect” value in data set [1] (in vivo, sc) turned out to be 1.5 mg/kg. Moreover, on V1a receptor (setting [5]), the EC50 worked out at 0.0126 µM. Also, the Emax on V1a receptor (Table 4, n = 2) was 55.9%.
As for `NCCCC[C@H](NC(=O)[C@@H]1CCCN1C(=O)[C@@H]1CSSCCC(=O)N[C@@H](Cc2ccc(O)cc2)C(=O)N[C@@H](Cc2ccccc2)C(=O)N[C@@H](CCCC(N)=O)C(=O)N[C@@H](CC(N)=O)C(=O)N1)C(=O)NCC(N)=O` [SEQ ID NO. 25, Mpa-Tyr-Phe-Hgn-Asn-Cys-Pro-Lys-Gly-NH2], the “Paleness (Duration, hrs; SD)” value in data set [1] (setting [3]) is listed as “(4.9 ± 0.05) hrs”; in data set [1] (setting [4]), “(5.66 ± 0.83) hrs”; in data set [1] (S.C., at the NOAEL dose), “(3.78 ± 0.05) hrs”; in data set [1] (S.C., at the NOEL dose) it was “None observed”. In data set [1] (S.C.), the “Highest dose with no-observed effect level or paleness (NOEL)” value is 0.0015 mg/kg. Besides, the “NOAEL/NOEL (therapeutic index)” value in data set [1] (S.C.) came out at 10. The NOAEL at 24 h in data set [1] (in vivo, sc, S.C.) turned out to be 0.015 mg/kg. In data set [1] (in vivo, sc), the “Marked adverse effect” value was 0.15 mg/kg. In addition, the “Mild adverse effect” value in data set [1] (in vivo, sc) was 0.05 mg/kg. The “bioactivity duration compared with terlipressin” value in data set [1] (remark in NOAEL/NOEL column) was determined as 3x longer. In addition, the Emax on V1a receptor (Table 3, n = 2) is 42.8%.
Turning to `CCCCCCCCCCCC(=O)NCCCC[C@H](NC(=O)[C@@H]1CCCN1C(=O)[C@@H]1CSSCCC(=O)N[C@@H](Cc2ccc(O)cc2)C(=O)N[C@@H](Cc2ccccc2)C(=O)N[C@@H](CCCC(N)=O)C(=O)N[C@@H](CC(N)=O)C(=O)N1)C(=O)NCC(N)=O` [SEQ ID NO. 27, Mpa-Tyr-Phe-Hgn-Asn-Cys-Pro-Lys(X)a-Gly-NH2; (X)a = Lauric acid], in data set [1] (S.C.), the “Highest dose with no-observed effect level or paleness (NOEL)” value was determined as 0.1 mg/kg and the “NOAEL/NOEL (therapeutic index)” value is listed as 90 (dose too. The NOAEL in data set [1] (in vivo, sc, S.C.) came out at 9 mg/kg. Further, in data set [1] (in vivo, sc), the “Ataxia (duration, hrs; SD)” value is listed as “None Observed”; the “Lethargy (duration, hrs; SD)” value is recorded as “None Observed”; the “Marked adverse effect” value was above 9 mg/kg; the “Mild adverse effect” value is above 9 mg/kg. In addition, the “V1a Highest agonist effect (% of AVP); n = 2” value on V1a receptor (Table 3) was “inactive”. Moreover, the EC50 at V1a receptor (setting [2]) is above 10 µM.
`CC(=O)NCCCC[C@H](NC(=O)[C@@H]1CCCN1C(=O)[C@@H]1CSSCCC(=O)N[C@@H](Cc2ccc(O)cc2)C(=O)N[C@@H](Cc2ccccc2)C(=O)N[C@@H](CCCC(N)=O)C(=O)N[C@@H](CC(N)=O)C(=O)N1)C(=O)NCC(N)=O` [SEQ ID NO. 28, Mpa-Tyr-Phe-Hgn-Asn-Cys-Pro-Lys(X)a-Gly-NH2; (X)a = Ac]: in data set [1] (S.C.), the “Highest dose with no-observed effect level or paleness (NOEL)” value was found to be 0.1 mg/kg and the “NOAEL/NOEL (therapeutic index)” value is reported as 3. Besides, the NOAEL in data set [1] (in vivo, sc, S.C.) turned out to be 0.33 mg/kg. Also, in data set [1] (in vivo, sc), the “Marked adverse effect” value is 3 mg/kg and the “Mild adverse effect” value was determined as 1 mg/kg. Further, the 50% effective concentration (EC50) at V1a receptor (setting [2]) was above 10 µM. The Emax on V1a receptor (Table 3, n = 2) came to 30%.

One may read the NOAEL as the highest dose or exposure tested at which no adverse effect was seen. As a reminder, the EC50 is the midpoint of the concentration-response curve.

Source of the values: patent US12410211B2, “V1A receptor partial agonist and method of use” (PharmaIN Corporation, priority 2020, dated 2025).
